In patent publication US20240415789A1, “CYCLOBENZAPRINE FOR TREATMENT OR PREVENTION OF SEXUAL DYSFUNCTION ASSOCIATED WITH MENTAL HEALTH CONDITIONS IN FEMALE PATIENTS” (Tonix Pharmaceuticals Holding Corp., priority 2021, published 2024):
Where a name gives a salt, the structure may show the parent alone. Read-outs that look alike come from different tables or passages of the source.

Key:
[1] = test system: female sexual functioning in females with military-related PTSD; settings: military Phase 3, females 5.6 mg (N=8) vs placebo (N=16), 12 weeks
Description: (§1) Methods: In this 12-week, multicenter, adaptive design, randomized controlled fixed-dose trial, 5.6 mg cyclobenzaprine HCl (2×2.8 mg sublingual tablets, comprising a 75%±2% cyclobenzaprine HCl and 25%±2% mannitol eutectic and a potassium phosphate dibasic anhydrous basifying agent) taken daily at bedtime was compared to placebo for the treatment of PTSD at 45 U.S. sites. […] A pre-planned interim analysis was conducted when about half the originally planned sample of 550 participants had outcome data.
(§2) The modified intention-to-treat (mITT) population, which included all randomized subjects with at least one post-baseline CAPS-5, included 125 participants treated with 5.6 mg dose per day the above cyclobenzaprine HCl sublingual formulation and 127 participants on placebo were studied.
Sexual functioning was measured by Changes in Sexual Functioning Questionnaire short-form (CSFQ-14) which is a validated 14-item measure (Keller, McGarvey, Clayton, 2006). Parallel gender-specific versions are administered to males (CSFQ-14-M) and females (CSFQ-14-F), and each sex was analyzed separately. In addition to a total sexual functioning score, there are five sub-scales: desire/frequency, desire/interest, arousal/excitement, orgasm/complete, and pleasure. The scales range from (never) to (every day) and higher scores reflect greater levels of sexual functioning.
(§3) In the Phase 3 study in predominantly civilian PTSD, the inclusion criteria were broadened to include civilian participants with current PTSD, as determined by the CAPS-5. Accordingly, this study included 94% civilian trauma with a minimum baseline severity score of ≥33 on the CAPS-5. […] Thus, analyses were conducted on the interim analysis sample of 252 participants in the military Phase 3 study (89% male [n=225 M; n=27 F]; 100% military PTSD) and […] subjects in the civilian Phase 3 study (79% female [n=129 F; n=34 M]; 94% civilian PTSD).
(§4) The CSFQ-14 is a validated 14-item measure (Keller, McGarvey, Clayton, 2006) that has male and female versions which were analyzed separately. In addition to a total sexual functioning score, there are five sub-scales: desire/frequency, desire/interest, arousal/excitement, orgasm/complete, and pleasure. The items range on 5-point Likert scale from (never) to (every day). Higher scores reflect greater levels of sexual functioning.

[2] = Description: as §1, §2
military-related PTSD = settings: female subgroup (10 active, 17 placebo), 5.6 mg per day sublingual, after 12 weeks of treatment
Description: as §1, §2

[3] = test system: female sexual functioning in females with predominantly civilian PTSD; settings: civilian Phase 3, female completers 5.6 mg (N=58) vs placebo (N=55), 12 weeks
Description: (§5) Three randomized, placebo-controlled and double-blind clinical trials of the above described 5.6 mg cyclobenzaprine HCl sublingual formulation (2×2.8 mg tablets) were performed, a Phase 2 study and a Phase 3 study in military-related PTSD, and a Phase 3 study in predominantly civilian PTSD. […] The present retrospective analysis examined the activity of the cyclobenzaprine HCl sublingual formulation on the Changes in Sexual Functioning Questionnaire short form (CSFQ-14) in the two Phase 3 studies.
as §3, §4

[4] = both Phase 3 studies
Description: as §5, §3

[5] = Phase 2 study in military-related PTSD, drug and placebo groups
Description: as §5

PTSD = settings: all three trials (Phase 2, two Phase 3), 5.6 mg dose
Description: as §5

CN(C)CCC=C1c2ccccc2C=Cc2ccccc21 [cyclobenzaprine HCl]
CSFQ-14-F arousal/excitement subscale, Hedges' g vs placebo [1]: 0.55
CSFQ-14-F desire/frequency subscale, Hedges' g vs placebo [1]: 0.46
CSFQ-14-F desire/interest subscale, Hedges' g vs placebo [1]: 0.63
CSFQ-14-F orgasm/completion scale, effect vs placebo [1]: No effect
CSFQ-14-F pleasure subscale, Hedges' g vs placebo [1]: 0.54
CSFQ-14-F total score, Hedges' g effect size vs placebo [1]: 0.49
severity of oral hypoaesthesia ([2]; military Phase 3): never rated as severe
participants with at least one AE leading to study discontinuation ([2]; military Phase 3, 5.6 mg dose (placebo: two)): 8 participants
most frequent adverse event ([2]; military Phase 3, 5.6 mg sublingual daily at bedtime): oral hypoaesthesia
duration of oral hypoaesthesia post administration ([2]; military Phase 3, generally transient): < 60 min
most common systemic adverse event ([2]; military Phase 3, also never rated as severe): somnolence
observed mean improvement in CAPS-5 over placebo (military-related PTSD): −9.1 units
CSFQ-14-F arousal/excitement subscale, Hedges' g vs placebo [3]: 0.33
CSFQ-14-F desire/frequency subscale, Hedges' g vs placebo [3]: 0.21
CSFQ-14-F desire/interest subscale, Hedges' g vs placebo [3]: 0.23
CSFQ-14-F orgasm/completion subscale, Hedges' g vs placebo [3]: 0.29
CSFQ-14-F pleasure subscale, Hedges' g vs placebo [3]: 0.19
CSFQ-14-F total score, Hedges' g effect size vs placebo ([3]; p=0.07): 0.37
severity of oral hypoaesthesia [4]: never rated as severe
most frequent adverse event ([4]; 5.6 mg sublingual): oral hypoaesthesia
duration of oral hypoaesthesia post administration ([4]; generally transient): < 60 min
most common systemic adverse event ([4]; also never rated as severe): somnolence
rates of adverse events related to sexual function [5]: very low rates
activity on clinician- and patient-rated global PTSD symptoms (CGI and PGIC) (PTSD): encouraging activity
